Laboratory results from ChEMBL document CHEMBL3507680, “University of Dundee, Gates Library screen for HepG2 cell viability”.

Test: Human HepG2 cell viability assay in 384 well format
Type: toxicity, cell-based
Design: dose 125 nL, time 70.5 hour; cytotoxicity at 70.5 h: concentration not given beside the values
Conditions: HepG2 cells, read-out: Inhibition

| Compound | cytotoxicity at 70.5 h |
| --- | --- |
| COCCN(Cc1ccc(F)cc1Cl)C(=O)c1ccccn1 | 9.84% |
| CCCc1n[nH]c(C2CN(C(=O)Cc3ccc(C)nc3)CCO2)n1 (centres undefined) | -1.25% |
| CN(Cc1cnn(C)c1)C1CCCN(Cc2noc(C3CC3)n2)C1 (centres undefined) | 50.1% |
| CC1(NC(=O)Cc2csc(NC(=O)c3ccccc3)n2)CCS(=O)(=O)C1 (centres undefined) | -71.2% |
| CCSc1cc(C(=O)NCc2ccc(C(=O)NC)cc2)ccn1 | -81.1% |
| O=C(NCCCn1cccn1)C1(c2cccc(Cl)c2)CC1 | 55.5% |
| CC(CN1CCCC1=O)NC(=O)c1ccc(-c2ccco2)[nH]c1=O (centres undefined) | -96.6% |
| Cc1ncc2c(n1)CN(Cc1nc(C)c(C)o1)CC2 | -100% |
| COCCOc1nc(-c2ccccc2Cl)no1 | -78.8% |
| CC1(NC(=O)Cc2csc(-c3ccccc3Cl)n2)CCS(=O)(=O)C1 (centres undefined) | -88.9% |
| Cc1cc(NC2CCc3ncnn3C2)n2ncnc2n1 (centres undefined) | -106% |
| Cc1n[nH]c(C2CN(CC(=O)NCCc3ccccc3C)CCO2)n1 (centres undefined) | -109% |
| Cc1n[nH]c(C2CN(CC(=O)NCc3cccs3)CCO2)n1 (centres undefined) | -86.1% |
| O=C(NCc1ccco1)N1CCC(n2ccc(C(F)(F)F)n2)CC1 | -82.9% |
| CCNC(=O)N1CCC(n2ccc(C(F)(F)F)n2)CC1 | 38.9% |
| COCC(C)NC(=O)NCCCc1cc(N)n(-c2ccccc2)n1 (centres undefined) | -108% |
| Cc1n[nH]c(C2CN(CC(=O)NCCc3ccccc3)CCO2)n1 (centres undefined) | 9% |
| CC(OCC(F)(F)F)C(=O)N1CCCC1 (centres undefined) | -61.3% |
| CCOc1cc(CN(C)CC(C)(C)O)ccc1OC(F)F | 4.76% |
| O=C(c1cc(Cl)c2c(c1)OCO2)N1CCN(c2ncccn2)CC1 | 30.1% |
| O=S(=O)(NCC1COc2ccccc2C1)N1CCOCC1 (centres undefined) | -3.96% |
| O=C(c1ccc(O)c(Cl)c1)N1CCN(c2nccs2)CC1 | -9.18% |
| Cc1ccc(C(=O)NC2CCN(Cc3noc(C(C)(C)C)n3)CC2)s1 | -14.3% |
| Cc1ccc(C(=O)NC2CCN(Cc3noc(C(C)C)n3)CC2)s1 | -8.2% |

| Compound | cytotoxicity at 70.5 h |
| --- | --- |
| CCc1noc(CN2CCC(NC(=O)c3ccc(C)s3)CC2)n1 | -9.12% |
| Cc1cc(CN2CCN(C(=O)C(C(C)C)n3cncn3)CC2)on1 (centres undefined) | -10.4% |
| Cc1ccc(-n2nnc(CC(=O)N3CCN(C(C)C)CC3)c2C)cc1 | -10.5% |
| Cc1cccc(C)c1OCC(O)CNCc1c(C)nn(C)c1N(C)C (centres undefined) | -4.45% |
| Cc1c(CC(=O)N2CCN(C(C)C)CC2)nnn1-c1ccccc1 | 23.6% |
| Cc1cccc(OCC(O)CNCc2c(C)nn(C)c2N(C)C)c1 (centres undefined) | -8.26% |
| CC(C)C(C(=O)N1CCN(Cc2ccccn2)CC1)n1cncn1 (centres undefined) | -10.2% |
| Cc1oc(-c2ccsc2)nc1CC(=O)NCCCS(C)(=O)=O | 15.4% |
| Cc1oc(-c2ccsc2)nc1CC(=O)NCC(=O)Nc1cn[nH]c1 | -13% |
| Cc1cccc(-c2nc(CN3CC(n4nc(C)cc4C)C3)no2)c1 | -4.09% |
| CN(Cc1noc(C(C)(C)C)n1)Cc1ccccc1N1CCCC1 | -8.02% |
| Cn1nc2c(cc1=O)CN(Cc1nc(N)c3ccccc3n1)CC2 | 7.46% |
| CCNC(=O)CCCC(=O)N1CCc2cc(Cl)cc(Cl)c2C1 | -4.11% |
| O=C(CCc1ccncc1)N1CCc2cc(Cl)cc(Cl)c2C1 | 17.4% |
| Cc1noc(CN(Cc2cccs2)C2CC2)n1 | 17.3% |
| COCCc1noc(CN2CCCC2c2noc(C(C)C)n2)n1 (centres undefined) | 17.1% |
| Cc1nn(C)c(N(C)C)c1CNCC(O)COc1cccc(F)c1 (centres undefined) | -11.4% |
| Cc1cnn(CCNCC(O)c2ccc(F)c(F)c2)c1 (centres undefined) | 3.17% |
| Cc1cc(NC(=O)c2ccccc2Br)n(C)n1 | 2.28% |
| COC(=O)c1cc(OC)c(OC)cc1NCc1c(C)noc1C | -2.42% |
| O=c1[nH]ncc(NCCOc2ccc3c(c2)OCO3)c1Cl | -8.71% |
| Cc1cc(NC(=O)c2ccc(Br)cc2F)n(C)n1 | 12.5% |
| O=c1[nH]ncc(NCCOc2ccc3c(c2)CCC3)c1Cl | -11.7% |
| CN(CC(=O)Nc1cc(CC2CCCCC2)n[nH]1)S(C)(=O)=O | -4.16% |

| Compound | cytotoxicity at 70.5 h |
| --- | --- |
| c1ccc(-c2cc(CN3CCc4cncnc4C3)on2)cc1 | -4.72% |
| Cc1ccc(-c2cc(CN3CCc4cnc(C)nc4C3)on2)cc1 | -10.1% |
| Cc1cnn(CCNCc2ccc(S(C)(=O)=O)cc2)c1 | -4.97% |
| Cc1cnn(CCNCC(O)c2cccc(Br)c2)c1 (centres undefined) | -8.97% |
| Cc1c(Br)cccc1S(=O)(=O)NCc1ccnn1C | -3.27% |
| COCCCNS(=O)(=O)c1cc(C)sc1C | -6.05% |
| Cc1ccc(CN(C)C(=O)c2cccc(NC(N)=O)c2)o1 | -11.5% |
| COc1ccc(C(C)NC(=O)Nc2nccs2)cc1OC (centres undefined) | -8.99% |
| Cc1ccc(CN(C(=O)c2cccc(NC(N)=O)c2)C2CC2)o1 | -10.5% |
| CC(C)N(C)C(=O)c1ccc(Cl)c(NC(=O)C2CCC2)c1 | 19.4% |
| CNC(=O)NC(=O)CCSc1ccccc1C | -0.594% |
| CN1CCC(NC(=O)Cc2csc(C(C)(C)C)n2)CC1 | -10.5% |
| CC(C)N(C)C(=O)c1ccc(Cl)c(NC(=O)COCC2CC2)c1 | -6.46% |
| O=C(Nc1cc(-c2ccccc2)on1)N1CC[C@H](O)C1 | -1.65% |
| CCc1noc(CC)c1CC(=O)N1CCN(C(=O)C2CCCC2)CC1 | -9.43% |
| CCc1noc(CC)c1CC(=O)N1CCN(C(C#N)C(C)C)CC1 (centres undefined) | -8.63% |
| NC(=O)CCSCc1cc(Br)cc2cccnc12 | 10.9% |
| CCCNC(=O)C(C)Nc1ccc(COCC)cc1 (centres undefined) | -0.943% |
| Cc1nc(CNC(=O)Nc2ccc3c(ccn3CCN(C)C)c2)no1 | -2.87% |
| NC(=O)NC(=O)CCSc1ccccc1Cl | -17.5% |
| CC(SCCS(C)(=O)=O)c1nc(Cc2ccccc2)no1 (centres undefined) | -7.83% |
| CCc1noc(CC)c1CC(=O)N1CCCC(N2CCCCC2)C1 (centres undefined) | -8.14% |
| CCS(=O)(=O)c1nccn1-c1cccc(F)c1 | -9.95% |
| CCN(CCc1nccs1)C(=O)c1ccco1 | -7.04% |

| Compound | cytotoxicity at 70.5 h |
| --- | --- |
| CN(CCCc1ccc(C(F)(F)F)cc1)Cc1nccn1C | -12% |
| CCC1CN(CC(=O)NCC(C)C)CCO1 (centres undefined) | -10.6% |
| CCOCCN1CCc2cncnc2C1 | 27.9% |
| Cc1noc(C2CCCN(CC(=O)N3CCNC(=O)C3)C2)n1 (centres undefined) | -4.79% |
| CCc1noc(CCCC(=O)Nc2cc(C(F)(F)F)c[nH]c2=O)n1 | 0.169% |
| CC(C)c1noc(CCC(=O)Nc2cc(C(F)(F)F)c[nH]c2=O)n1 | -3.33% |
| Cn1cc(C(=O)N(Cc2ccco2)Cc2cccs2)ccc1=O | -8.8% |
| COc1ccc(CC(=O)N2CCC(c3n[nH]c(C4CC4)n3)CC2)cc1 | 2.82% |
| COc1ccc(C(=O)NCCCNc2ncccn2)c(OC)c1 | -7.46% |
| NC(=O)C1=NC2=NS(=O)(=O)c3ccccc3N2N1Cc1ccc(Br)cc1 | -7.39% |
| Cc1ccc(CNC(=O)c2c[nH]nc2NC(=O)COCC2CC2)cc1 | -3.76% |
| Cc1ccc(CNC(=O)c2c[nH]nc2NC(=O)C2CCC2)cc1 | -7.26% |
| CCOc1ccc(NC2CCN(C)C2=O)cn1 (centres undefined) | -3.61% |
| CCC(C)Oc1cc(C(=O)Nc2nc(C)ns2)ccn1 (centres undefined) | -0.392% |
| CCCc1nnc(NCc2ccc(OC)c(C#N)c2)o1 | 20.2% |
| CC(C)OCc1cccc(NC(=O)N(C)Cc2ncnn2C)c1 | -9.1% |
| CCSCc1cccc(NC(=O)N(C)Cc2ncnn2C)c1 | -3.07% |
| CC(C)Nc1cccc(CNC(=O)N2CCC[C@@H]2CO)c1 | -2.37% |
| CCN(C(=O)NCc1ncc(C)c(OC)c1C)C(C)c1cccnc1 (centres undefined) | -9.02% |
| OC(COCc1cccs1)CSc1nnc2ccccn12 (centres undefined) | 22.9% |
| CC(=O)N(CCc1ccccc1)CC(=O)NC1(C#N)CC1 | -0.397% |
| Cc1cc(S(=O)(=O)Nc2onc(C)c2C)c(C)s1 | -3.24% |
| CCN1CCN(C(=O)NCc2cccc(-c3cnn(C)c3)c2)CC1 | -2.59% |
| Cc1nc(C2CCCN2C(=O)c2ccc(=O)n(C)n2)no1 (centres undefined) | -5.27% |

| Compound | cytotoxicity at 70.5 h |
| --- | --- |
| c1cncc(CN2CCC(NCCc3ccc4c(c3)OCO4)CC2)c1 | 0.189% |
| Cc1ccsc1CN(C)C(=O)C1CCCN(C(N)=O)C1 (centres undefined) | -8.56% |
| Cc1cccc(C(C)(C)CNc2cn[nH]c(=O)c2Cl)c1 | 18.4% |
| CC(C)(CNc1cn[nH]c(=O)c1Cl)c1ccc2c(c1)OCO2 | -13.4% |
| CC(C)c1ccc(O)c(C(=O)NC2CCN(c3ncccn3)CC2)c1 | -19.5% |
| CN(C(=O)CN1CCC(c2cc3ccccc3[nH]2)CC1)C1CC1 | -8.97% |
| CN(C)C(=O)CN1CCN(C(=O)C2CSc3ccccc3O2)CC1 (centres undefined) | -16.2% |
| CCOC(C(=O)N1CCn2c(C)nnc2C1)c1ccccc1 (centres undefined) | -11.7% |
| Cc1nnc2n1CCN(C(=O)C(OC1CCCC1)c1ccccc1)C2 (centres undefined) | -1.74% |
| CC(C)(O)CN1CCN(C(=O)C2CSc3ccccc3O2)CC1 (centres undefined) | -14.7% |
| Cc1noc(C2CCN(C(C)c3nc(C(C)(C)C)no3)CC2)n1 (centres undefined) | -14.9% |
| CC(C)NC(=O)C1CCN(Cn2ccc(-c3ccc(F)cc3)n2)CC1 | 4% |
| N#CCCN(c1ccc(F)cc1)S(=O)(=O)CC1CCCCO1 (centres undefined) | -1.6% |
| Cc1cccc(-c2c[nH]c(C3CCCN3C(=O)Cn3cc(C)cn3)n2)c1 (centres undefined) | 6.62% |
| N#CCCN(c1ccccc1)S(=O)(=O)CC1CCCCO1 (centres undefined) | -9.85% |
| CCC(NC(=O)c1ccc2[nH]ccc2c1)C(=O)N1CCOCC1 (centres undefined) | 6.49% |
| O=C(NC1CCN(c2ncccn2)CC1)c1cc2c(cc1O)CCCC2 | 6.37% |
| CC1CN(C(=O)c2cc[nH]c(=O)c2)c2ccccc21 (centres undefined) | -12.3% |
| CCCNC(=O)CCc1ccnc2ccccc12 | -14% |
| CCOC(C)c1nc(Cn2cc(C)cn2)cs1 (centres undefined) | 9.54% |
| CCOC(C)c1nc(Cn2cccn2)cs1 (centres undefined) | -8.39% |
| CCOC(C)c1nc(Cn2cc(-n3cccc3)cn2)cs1 (centres undefined) | -10.1% |
| CC(CN(C)C(=O)c1cn(C)nc1-c1ccc(F)cc1F)C(=O)O (centres undefined) | -1.61% |
